Measurements published in PMC9658513, “Discovery of Compounds That Selectively Repress the Amyloidogenic Processing of the Amyloid Precursor Protein: Design, Synthesis and Pharmacological Evaluation of Diphenylpyrazoles” (International Journal of Molecular Sciences, 2022).
Where two headings read alike, the source gives them in different places.

Legend:
[1] = test system: αCTF (APP carboxy-terminal fragment); assay: αCTF level by Western blotting in SY5Y-APP^WT cells; assay type: cell-based, human; settings: for EC (20-fold increase): concentration increasing αCTF 20-fold vs untreated control, SY5Y-APP^WT cells, read-out: αCTF (C20); for C20 for CTFα and AICD: CTFα and AICD together
In short: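 SH-SY5Y cells stably expressing human wild-type APP695 treated with compounds for 24 h at 37 °C. αCTF and AICD measured by Western blot of lysates (10 µg protein, 12% Bis-Tris gels) as band intensity; C20 is concentration raising these fragments 20-fold over control.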

p62 = assay: Autophagic flux: p62 expression by Western blot; assay type: cell-based, human; settings: 24 h, compound at 3 µM, SY5Y-APP^wt cells, vs control; for fold induction at 3 µM: Homo sapiens
Source text: Previous work dedicated to compounds of family C [22] has underlined the effect of our compounds on autophagic flux and the lysosomal degradation pathways. More precisely, the role of the amino side chains and their number was highlighted. Therefore, we assessed whether the activity of compounds involved the modulation of lysosomal activities toward the accumulation of APP-CTFs and AICD. Thus, we studied the effect of a selection of compounds on the autophagic flux, more particularly, we evaluated the effect of compounds 24, 33, 34, 57, 65, 67, 70, and 71 on two markers associated with autophagy: p62 and LC3-I lipidation into LC3-II. To the previous selection of efficient compounds decreasing Aβ1–x production and increasing CTFα and AICD, we added compound 65 with no cytotoxicity at 100 µM. As a comparison, we also selected compound 57 with a hydroxymethyl substituent as a control. In addition to CQ, bafilomycin A, a well-known inhibitor of autophagic flux, was used as a control. Treatment with compounds 67 and 71 induced an increase in p62 expression by 2.5 and 4-fold, respectively, compared to the control condition (Figure 3). […] An increase in the two markers was also observed with compound 57, but to a smaller extent (1.7-fold for p62 and 2-fold for LC3-I/LC3-II).
The human neuroblastoma cell line SY5Y-APP^695WT was maintained in Dulbecco’s modified Eagle medium (DMEM, high glucose, pyruvate—GIBCO, Life Technologies, Carlsbad, CA, USA) supplemented with 10% fetal bovine serum, 2 mM L-glutamine, 1 mM non-essential amino acids and penicillin/streptomycin (GIBCO, Life Technologies, Carlsbad, CA, USA) at 37 °C in a 5% CO2 humidified incubator [36]. For compound treatment, a 10 mM stock solution was diluted in freshly supplemented DMEM medium to obtain the precise final concentration of the drug. Cells were plated at a density of 5 × 10^5 cells per well into 12-well plates and cultured with 1 mL supplemented DMEM cell medium for 24 h before compound exposure. The following day, the cell medium was replaced with fresh medium containing the compounds diluted at the indicated concentrations. Cells were treated for 24 h. At the end of the treatments, the cell medium was collected and kept at −80 °C until use, cells were rinsed once with PBS and extracted in 100 µL of Laemmli buffer (10 mM Tris, 20% glycerol, and 2% sodium dodecyl sulfate) using a cell-scraper. The cell lysate was further sonicated (30 pulses of 0.5 s, 60 Hz) for 5 min. Total protein concentration was determined using the Pierce BCA Protein Assay Kit (Thermo Scientific, Waltham, MA, USA) according to the manufacturer’s instructions. Samples were stored at −80 °C until analysis.
Cell protein lysates were prepared for Western blot analysis by diluting the sample with 1 volume of NuPAGE® lithium dodecyl sulfate (LDS) 2X sample buffer supplemented with 20% NuPAGE® sample reducing agents (Invitrogen). Samples were heated for 10 min at 100 °C. Ten µg of total proteins per well were loaded onto precast 4–12% Criterion XT Bis-Tris polyacrylamide gels (Bio-Rad) and electrophoresis was achieved after applying a tension of 150 V for 90 min using a Criterion electrophoresis cell with the NuPAGE® MOPS SDS running buffer (1X). Proteins were transferred to a nitrocellulose membrane of […] pore size (G&E Healthcare, Madison, WI, USA) using the Criterion blotting system and applying a tension of 100 V for 45 min. To resolve proteins of low molecular weights such as carboxy-terminal fragments of APP, 12% Criterion XT Bis-Tris polyacrylamide gels (Bio-Rad, Hercules, CA, USA) were used, and electrophoresis was performed for 70 min at 150 V in a NuPAGE® MES SDS running buffer (1X). Proteins were transferred to a nitrocellulose membrane of 0.2 µm pore size (G&E Healthcare, Madison, WI, USA) at 100 V for 40 min. Molecular weight calibration was achieved using molecular weight markers (Novex and Magic Marks, Life Technologies, Carlsbad, CA, USA). […]

Row | Compound | EC (20-fold increase) ([1]; Homo sapiens) [µM] | fold induction at 3 µM (p62) | C20 for CTFα and AICD [1] | EC (20-fold increase) [1] [µM] | p62 (p62) [Fold-change]
1 | CN(C)CCCc1ccc(-c2nn(-c3ccc(CN(C)C)cc3)cc2CN(C)C)cc1 [Compound 24, 3-[4-[4-(Dimethylaminomethyl)-1-[4-(dimethylaminomethyl)phenyl] Pyrazol-3-yl]phenyl]-N,N-dimethyl-propan-1-amine] | 1.6 | 1.64 |  |  | 
2 | Cc1cn(-c2cccc(CO)c2)nc1-c1ccc(CN(C)CCCN(C)C)cc1 [Compound 57, (3-{3-[4-({[3-(Dimethylamino)propyl](methyl)amino}methyl)phenyl]-4-methyl-1H-pyrazol-1-yl}phenyl)methanol] | > 10 | 1.7 |  |  | 
3 | Cc1cn(-c2cccc(CN3CCN(C)CC3)c2)nc1-c1cccc(CN(C)C)c1 [Compound 65, N,N-dimethyl-1-[3-[4-methyl-1-[3-[(4-methylpiperazin-1-yl)methyl]phenyl]pyrazol-3-yl]phenyl]methanamine] | 1.7 | 1.64 |  |  | 
4 | Cc1cn(-c2cccc(CN(C)C)c2)nc1-c1ccc(CN(C)CCCN(C)C)cc1 [Compound 67, {[4-(1-{3-[(Dimethylamino)methyl]phenyl}-4-methyl-1H-pyrazol-3-yl)phenyl]methyl} [3-(Dimethylamino)propyl]methylamine] | 1.4 | 2.5 | around 1 µM |  | 
5 | Cc1cn(-c2cccc(CN(C)C)c2)nc1-c1cccc(CN(C)CCCN(C)C)c1 [Compound 70, N′-[[3-[1-[3-(Dimethylaminomethyl)phenyl]-4-methyl-pyrazol-3-yl]phenyl] Methyl]-N,N,N′-trimethyl-propane-1,3-diamine] | 1.3 | 3 |  |  | 
6 | Cc1cn(-c2cccc(CN3CCN(C)CC3)c2)nc1-c1cccc(CN(C)CCCN(C)C)c1 [Compound 71, N,N,N′-Trimethyl-N′-[[3-[4-methyl-1-[3-[(4-methylpiperazin-1-yl)methyl]phenyl]pyrazol-3-yl]phenyl]methyl]propane-1,3-diamine] | 0.7 | 4 | around 1 µM |  | 
7 | N′-[[4-[4-[3-(Dimethylamino)propyl]-3-[4-[3-(dimethylamino)propyl]phenyl] Pyrazol-1-yl]phenyl]methyl]-N,N,N′-trimethyl-propane-1,3-diamine [Compound 33] |  |  |  | 6.1 | 1.04
